Target: T1, GPR119 receptor (Mesocricetus auratus, UniProt A0A1U8CD06)
T1 construct: which endogenously express the GPR119 receptor; host or cells: HIT-T15 hamster pancreatic islet cells
T1 sequence (A0A1U8CD06 1-334): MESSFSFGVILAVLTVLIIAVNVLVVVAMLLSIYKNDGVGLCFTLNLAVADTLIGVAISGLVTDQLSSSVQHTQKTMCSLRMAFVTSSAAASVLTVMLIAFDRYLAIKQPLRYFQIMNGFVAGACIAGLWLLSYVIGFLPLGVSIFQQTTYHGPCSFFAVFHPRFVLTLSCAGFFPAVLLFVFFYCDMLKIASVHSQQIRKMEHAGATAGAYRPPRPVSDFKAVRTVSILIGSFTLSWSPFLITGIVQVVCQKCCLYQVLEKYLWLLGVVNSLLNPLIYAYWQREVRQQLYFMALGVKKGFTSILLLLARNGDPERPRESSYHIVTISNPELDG
Assay: cAMP assay in HIT-T15 hamster pancreatic islet cells (functional agonist activity)
Format: cell-based
Conditions: HIT-T15 cells endogenously expressing GPR119; 30 min at 25° C.; intracellular cAMP
Protocol: The functional agonist activities of compounds of the invention were characterized using a cAMP assay in HIT-T15 hamster pancreatic islet cells (American Type Culture Collection, Manassas, Va., USA) which endogenously express the GPR119 receptor. The cells were cultured in Kaighn's modification of Ham's F12 medium (Invitrogen Corporation, Carlsbad, Calif., USA) containing 10% horse serum, 2.5% FBS, and 1% Pen/Strep and grown in 225 cm^2 tissue culture flasks until they reached 75-85% confluence.
The cells were harvested 24 h prior to assay with 5 ml Versene®, washed with Kaighn/F12 medium and then plated into white 384-well plates (9000 cells/well) containing Kaighn/F12 medium. Prior to assay, the culture medium was replaced with a Kaighn/F12 medium without phenol red (50 μL/well) containing 0.5 mM 3-isobutyl-1-methylxanthine, 0.5 mg/ml BSA. The cells were incubated in the dark for 30 min at 25° C. in the absence or presence of varying concentrations of agonist (1 μL, 100% DMSO). The incubation media was discarded and replaced with the assay lysis buffer (50 μL/well) provided in the Tropix cAMP-Screen® kit (Applied Biosystems, Foster City, Calif., USA) and the plates incubated for 45 min at 37° C. The intracellular levels of cAMP generated in the HIT-T 15 cells were measured using the Tropix kit. In brief, 20 μL of the lysate was transferred into pre-coated antibody plates (384-well; Tropix kit) along with 10 μL of alkaline phosphatase conjugate and 20 μL of anti-cAMP antibody and the plates were incubated for 1 h at room temperature while shaking. The plates were then washed 5 times with wash buffer (70 μL) and tapped dry. CSPD®/Sapphire-II™ RTU substrate/enhancer solution (Applied Biosystems, Foster City, Calif., USA; 30 μL) was added and the plates were incubated for 45 min at room temperature while shaking. The signal generated was measured using a Wallac Victor V Luminometer (PerkinElmer Life And Analytical Sciences, Inc., Waltham, Mass., USA; 1 sec/well). EC50 values were calculated using the XLFit program (ID Business Solutions Ltd., Guildford, Surrey, UK).

Structure (SMILES)	EC50 [µM]
Cc1nnnn1-c1ccc(Oc2ncnc3c2cnn3C2CCN(C(=O)OC(C)(C)C)CC2)cc1 [Example 84, 4-{4-[4-(5-Methyl-tetrazol-1-yl)-phenoxy]-pyrazolo[3,4-d]pyrimidin-1-yl}-piperidine-1-carboxylic acid tert-butyl ester]	0.24
CC(C)(C)OC(=O)N1CCC(n2ncc3c(Oc4ccc(-n5ncnn5)cc4)ncnc32)CC1 [Example 82, 4-[4-(4-Tetrazol-2-yl-phenoxy)-pyrazolo[3,4-d]pyrimidin-1-yl]-piperidine-1-carboxylic acid tert-butyl ester]	1.8
CS(=O)(=O)c1ccc(Oc2ncnc3c2cnn3C2CCN(Cc3ccccc3)CC2)cc1 [Example 157, 1-(1-Benzyl-piperidin-4-yl)-4-(4-methanesulfonyl-phenoxy)-1H-pyrazolo[3,4-d]pyrimidine]	0.58
CC(C)(C)CC(=O)N1CCC(n2ncc3c(Oc4ccc(S(C)(=O)=O)cc4)ncnc32)CC1 [Example 144, 1-{4-[4-(4-Methanesulfonyl-phenoxy)-pyrazolo[3,4-d]pyrimidin-1-yl]-piperidin-1-yl}-3,3-dimethyl-butan-1-one]	0.27
Cc1cc(Oc2ncnc3c2cnn3C2CCN(C(=O)OC(C)(C)C)CC2)ccc1NS(C)(=O)=O [Example 68, 4-[4-(4-Methanesulfonylamino-3-methyl-phenoxy)-pyrazolo[3,4-d]pyrimidin-1-yl]-piperidine-1-carboxylic acid tert-butyl ester]	0.73
CS(=O)(=O)c1ccc(Oc2ncnc3c2cnn3C2CCN(C(=O)C3CCC3)CC2)cc1 [Example 140, Cyclobutyl-{4-[4-(4-methanesulfonyl-phenoxy)-pyrazolo[3,4-d]pyrimidin-1-yl]-piperidin-1-yl}-methanone]	0.75
Cc1nn(C2CCN(C(=O)OC(C)C)CC2)c2ncnc(Oc3ccc(S(C)(=O)=O)cc3)c12 [Example 22, 4-[4-(4-Methanesulfonyl-phenoxy)-3-methyl-pyrazolo[3,4-d]pyrimidin-1-yl]-piperidine-1-carboxylic acid isopropyl ester]	0.21
CC(C)(C)OC(=O)N1CCCC(n2ncc3c(Oc4ccc(S(C)(=O)=O)cc4)ncnc32)C1 (single isomer, unassigned) [Example 89]	0.21
Cc1nnnn1-c1ccc(Oc2ncnc3c2cnn3[C@H]2CC[C@H](c3nc(C(C)C)no3)CC2)cc1 [Example 133, 1-[4-(3-Isopropyl-[1,2,4]oxadiazol-5-yl)-trans-cyclohexyl]-4-[4-(5-methyl-tetrazol-1-yl)phenoxy]-1H-pyrazolo[3,4-d]pyrimidine]	3.34
Cc1ncccc1Nc1ncnc2c1cnn2C1CCN(C(=O)OC(C)(C)C)CC1 [Example 7, 4-[4-(2-Methyl-pyridin-3-ylamino)-pyrazolo[3,4-d]pyrimidin-1-yl]-piperidine-1-carboxylic acid tert-butyl ester]	2.2
CS(=O)(=O)c1ccc(Oc2ncnc3c2cnn3C2CCN(C(=O)C(F)(F)F)CC2)cc1 [Example 148, 2,2,2-Trifluoro-1-{4-[4-(4-methanesulfonyl-phenoxy)-pyrazolo[3,4-d]pyrimidin-1-yl]-piperidin-1-yl}-ethanone]	1.7
CS(=O)(=O)c1ccc(Oc2ncnc3c2cnn3C2CCN(c3ccc(Cl)nn3)CC2)cc1 [Example 130, 1-[1-(6-Chloro-pyridazin-3-yl)-piperidin-4-yl]-4-(4-methanesulfonyl-phenoxy)-1H-pyrazolo[3,4-d]pyrimidine]	0.71
CC(C)(C)OC(=O)N1CCC(n2ncc3c(Oc4ccc(-n5cncn5)cc4)ncnc32)CC1 [Example 80, 4-[4-(4-[1,2,4]Triazol-1-yl-phenoxy)-pyrazolo[3,4-d]pyrimidin-1-yl]-piperidine-1-carboxylic acid tert-butyl ester]	0.046

Results, then the molecule that gave them:

EC50 [µM]	Structure (SMILES)
0.75	CC(C)(C)OC(=O)N1CCC(n2ncc3c(Oc4ccc5c(c4)C=CS5(=O)=O)ncnc32)CC1 [Example 78, 4-[4-(1,1-Dioxo-1H-1λ^6-benzo[b]thiophen-5-yloxy)-pyrazolo[3,4-d]pyrimidin-1-yl]-piperidine-1-carboxylic acid tert-butyl ester]
0.17	Cc1ncccc1Oc1ncnc2c1cnn2C1CCN(C(=O)OC(C)(C)C)CC1 [Example 92, 4-[4-(2-Methyl-pyridin-3-yloxy)-pyrazolo[3,4-d]pyrimidin-1-yl]-piperidine-1-carboxylic acid tert-butyl ester]
0.71	CC(C)OC(=O)N1CCC(n2ncc3c(Oc4ccccc4C#N)ncnc32)CC1 [Example 19, 4-[4-(2-Cyano-phenoxy)-pyrazolo[3,4-d]pyrimidin-1-yl]-piperidine-1-carboxylic acid isopropyl ester]
0.55	Cc1nc(-c2ccc(Oc3ncnc4c3cnn4C3CCN(C(=O)OC(C)(C)C)CC3)cc2)no1 [Example 85, 4-{4-[4-(5-Methyl-[1,2,4]oxadiazol-3-yl)-phenoxy]-pyrazolo[3,4-d]pyrimidin-1-yl}-piperidine-1-carboxylic acid tert-butyl ester]
1.1	Cc1ncccc1Oc1ncnc2c1cnn2C1CCN(C(=O)Oc2ccccc2)CC1 [Example 122, 4-[4-(2-Methyl-pyridin-3-yloxy)-pyrazolo[3,4-d]pyrimidin-1-yl]-piperidine-1-carboxylic acid phenyl ester]
0.65	CCOC(=O)N1CCC(n2ncc3c(Oc4ccc(S(C)(=O)=O)cc4)ncnc32)CC1 [Example 13, 4-[4-(4-Methanesulfonyl-phenoxy)-pyrazolo[3,4-d]pyrimidin-1-yl]-piperidine-1-carboxylic acid ethyl ester]
0.048	CC(C)(C)OC(=O)N1CCC(n2ncc3c(Oc4ccc(S(C)(=O)=O)cc4F)ncnc32)CC1 [Example 60, 4-[4-(2-Fluoro-4-methanesulfonyl-phenoxy)-pyrazolo[3,4-d]pyrimidin-1-yl]-piperidine-1-carboxylic acid tert-butyl ester]
1.5	COc1ccc(Oc2ncnc3c2cnn3C2CCN(C(=O)OC(C)(C)C)CC2)cn1 [Example 96, 4-[4-(6-Methoxy-pyridin-3-yloxy)-pyrazolo[3,4-d]pyrimidin-1-yl]-piperidine-1-carboxylic acid tert-butyl ester]
0.14	CCOC(=O)N1CCC(n2ncc3c(Oc4ccc(S(C)(=O)=O)cc4F)ncnc32)CC1 [Example 14, 4-[4-(2-Fluoro-4-methanesulfonyl-phenoxy)-pyrazolo[3,4-d]pyrimidin-1-yl]-piperidine-1-carboxylic acid ethyl ester]
0.33	CC(C)CC(=O)N1CCC(n2ncc3c(Oc4ccc(S(C)(=O)=O)cc4)ncnc32)CC1 [Example 142, 1-{4-[4-(4-Methanesulfonyl-phenoxy)-pyrazolo[3,4-d]pyrimidin-1-yl]-piperidin-1-yl}-3-methyl-butan-1-one]
1.8	CC(C)(C)OC(=O)N1CCC(n2ncc3c(Oc4ccc5ccc(=O)oc5c4)ncnc32)CC1 [Example 75, 4-[4-(2-Oxo-2H-chromen-7-yloxy)-pyrazolo[3,4-d]pyrimidin-1-yl]-piperidine-1-carboxylic acid tert-butyl ester]
0.19	Cc1ncccc1Oc1ncnc2c1cnn2C1CCN(C(=O)OCC(C)C)CC1 [Example 107, 4-[4-(2-Methyl-pyridin-3-yloxy)-pyrazolo[3,4-d]pyrimidin-1-yl]-piperidine-1-carboxylic acid isobutyl ester]
0.2	CCOc1ccc(Oc2ncnc3c2cnn3C2CCN(C(=O)OC(C)(C)C)CC2)cc1 [Example 40, 4-[4-(4-Ethoxy-phenoxy)-pyrazolo[3,4-d]pyrimidin-1-yl]-piperidine-1-carboxylic acid tert-butyl ester]
0.061	CC(C)(C)OC(=O)N1CCC(n2ncc3c(Oc4ccccc4C#N)ncnc32)CC1 [Example 45, 4-[4-(2-Cyano-phenoxy)-pyrazolo[3,4-d]pyrimidin-1-yl]-piperidine-1-carboxylic acid tert-butyl ester]
0.043	CC(C)(C)OC(=O)N1CCC(n2ncc3c(Oc4ccc(S(C)(=O)=O)cc4)ncnc32)CC1 [Example 59, 4-[4-(4-Methanesulfonyl-phenoxy)-pyrazolo[3,4-d]pyrimidin-1-yl]-piperidine-1-carboxylic acid tert-butyl ester]
